Data taken from the NIST ThermoML archive (doi:10.1016/j.tca.2013.06.017).

Assays:
[1] = wn = mass fraction of the nth substance listed; conditions: 298.15 K, 101 kPa, Liquid; for viscosity: Capillary tube (Ostwald / Ubbelohde) method; for speed of sound: Sing-around technique in a fixed-path interferometer; for mass density: Vibrating tube method
[2] = refractive index (Na D-line) (dimensionless); wn = mass fraction of the nth substance listed; conditions: 298.15 K, 101 kPa, Liquid, Standard Abbe refractometry

O=[N+]([O-])[O-].O=[N+]([O-])[O-].[Ba+2] [barium dinitrate] + O
Conditions	mass density, [1] [kg/m3]	refractive index, [2]	speed of sound, [1] [m/s]	viscosity, [1] [mPa·s]
w1 = 0.01	997.37	1.3327	1512.7	0.904
w1 = 0.03	998.48	1.3334	1516.4	0.91
w1 = 0.05	999.56	1.3342	1519.3	0.916
